Measurements reported in patent publication US20250346593A1, “IMIDAZO(1,2-1)PYRIDINE DERIVATIVES AS RIPK2 INHIBITORS” (Interline Therapeutics, Inc., priority 2022, published 2025).
Like-named read-outs stand apart in the source and are kept apart here.

Assays:
[1] = test system: NF-κB pathway (SEAP) in THP1-Dual cells; assay: THP-1 Dual cell SEAP assay (L18-MDP stimulated); format: cell-based; details: read-out: NFkB THP1 IC50
[2] = biological target: GST-RIPK2 fusion protein (human RIPK2 amino acids 1-310) (Homo sapiens (Human), UniProt O43353); assay: RIPK2 binding competition assay (TR-FRET, Tracer 199)
GST-RIPK2 fusion protein (human RIPK2 amino acids 1-310), sequence (O43353 1-310): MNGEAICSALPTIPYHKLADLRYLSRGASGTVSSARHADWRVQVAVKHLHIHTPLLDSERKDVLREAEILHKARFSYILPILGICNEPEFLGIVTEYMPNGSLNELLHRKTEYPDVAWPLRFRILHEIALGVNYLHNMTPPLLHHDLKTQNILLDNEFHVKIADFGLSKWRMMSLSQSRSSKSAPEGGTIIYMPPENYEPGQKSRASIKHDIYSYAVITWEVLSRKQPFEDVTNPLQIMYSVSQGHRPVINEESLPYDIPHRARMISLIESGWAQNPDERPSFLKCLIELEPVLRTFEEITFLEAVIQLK

[3] = read-out: RIPK2 IC50, RIPK2 binding competition assay

Compound	IC50 ([1]; Homo sapiens, THP1-Dual) [nM]	IC50 [2] [nM]	further results
CCCS(=O)(=O)Nc1cc(-c2cnc3cc(OC)c(S(=O)(=O)C(C)(C)C)cn23)cc(OC)c1F [Example 267, N-(5-(6-(tert-butylsulfonyl)-7-methoxyimidazo[1,2-a]pyridin-3-yl)-2-fluoro-3-methoxyphenyl)propane-1-sulfonamide]	250 to 1000	1 to 2.5	
COc1cc2ncc(-c3cc(F)nc(NC[C@H](F)CO)c3)n2cc1S(=O)(=O)C(C)(C)C [Example 231, (2S)-2-fluoro-3-({6-fluoro-4-[7-methoxy-6-(2-methylpropane-2-sulfonyl)imidazo[1,2-a]pyridin-3-yl]pyridin-2-yl}amino)propan-1-ol]	< 50		IC50 [2, 3]: < 1 nM
COc1ccn2c(-c3cc(F)nc(F)c3)cnc2c1 [Example 45, 3-(2,6-difluoropyridin-4-yl)-7-methoxyimidazo[1,2-a]pyridine]	> 1000		IC50 [2, 3]: > 20 nM
COc1cc2ncc(-c3cc(F)c(OC)c(OCCCO)c3)n2cc1S(=O)(=O)C(C)(C)C [compound 339, 3-(5-(6-(tert-butylsulfonyl)-7-methoxyimidazo[1,2-a]pyridin-3-yl)-3-fluoro-2-methoxyphenoxy) propan-1-ol]	> 1000	2.5 to 20	
COc1cc2ncc(-c3cc(F)nc(NC4CC(O)C4)c3)n2cc1S(=O)(=O)C(C)(C)C (centres unmarked) [Example 191, (1s,3s)-3-((4-(6-(tert-butylsulfonyl)-7-methoxyimidazo[1,2-a]pyridin-3-yl)-6-fluoropyridin-2-yl)amino)cyclobutan-1-ol]	< 50		
CCCS(=O)(=O)Nc1cc(-c2cnc3cc(OC)c(S(=O)(=O)C(C)(C)C)cn23)ccc1OC(F)(F)F [Example 134, N-{5-[7-methoxy-6-(2-methylpropane-2-sulfonyl)imidazo[1,2-a]pyridin-3-yl]-2-(trifluoromethoxy)phenyl}propane-1-sulfonamide]	250 to 1000	2.5 to 20	
COc1cc2ncc(-c3cc(F)c(OC)c(NCCCO)c3)n2cc1S(=O)(=O)C(C)(C)C [Example 319, 3-((5-(6-(tert-butylsulfonyl)-7-methoxyimidazo[1,2-a]pyridin-3-yl)-3-fluoro-2-methoxyphenyl)amino)propan-1-ol]	50 to 250	1 to 2.5	
CCCS(=O)(=O)Nc1cc(-c2cnc3cc(OC)c(C(=O)N(C)C)cn23)cc(OC)c1OC [Example 137, 3-[3,4-dimethoxy-5-(propane-1-sulfonamido)phenyl]-7-methoxy-N,N-dimethylimidazo[1,2-a]pyridine-6-carboxamide]	250 to 1000	2.5 to 20	
COc1cc(-c2cnc3cc(OC)c(S(=O)(=O)C(C)(C)C)cn23)ccc1N [Example 87, 4-(6-(tert-butylsulfonyl)-7-methoxyimidazo[1,2-a]pyridin-3-yl)-2-methoxyaniline]	> 1000	2.5 to 20	
CCOc1cc2ncc(-c3cc(F)nc(NCCCO)c3)n2cc1C1(F)CCN(C)CC1 [Example 242, 3-({4-[7-ethoxy-6-(4-fluoro-1-methylpiperidin-4-yl)imidazo[1,2-a]pyridin-3-yl]-6-fluoropyridin-2-yl}amino)propan-1-ol]	< 50		IC50 [2, 3]: < 1 nM
COc1cc2ncc(-c3cc(F)nc(NCCS(C)(=N)=O)c3)n2cc1S(=O)(=O)C(C)(C)C (centres unmarked) [compound 316]			IC50 [1]: 250 to 1000 nM; IC50 [2, 3]: 2.5 to 20 nM
COc1cc2ncc(-c3ccc(O)cc3)n2cc1S(=O)(=O)C(C)(C)C [Example 149, 4-(6-(tert-butylsulfonyl)-7-methoxyimidazo[1,2-a]pyridin-3-yl)phenol]	250 to 1000		
COc1cc2ncc(-c3cc(F)nc(N[C@H]4C[C@@H](O)C4)c3)n2cc1S(=O)(=O)C(C)(C)C [Example 191, (1s,3s)-3-((4-(6-(tert-butylsulfonyl)-7-methoxyimidazo[1,2-a]pyridin-3-yl)-6-fluoropyridin-2-yl)amino)cyclobutan-1-ol]		< 1	
COc1cc2ncc(-c3cc(F)nc(NCCC(C)(C)O)c3)n2cc1S(=O)(=O)C(C)(C)C [Example 189, 4-((4-(6-(tert-butylsulfonyl)-7-methoxyimidazo[1,2-a]pyridin-3-yl)-6-fluoropyridin-2-yl)amino)-2-methylbutan-2-ol]			IC50 [2, 3]: < 1 nM
COc1cc2ncc(-c3cc(F)nc(NCCCNC(C)=O)c3)n2cc1S(=O)(=O)C(C)(C)C [Example 318, N-[3-({6-fluoro-4-[7-methoxy-6-(2-methylpropane-2-sulfonyl)imidazo [1,2-a]pyridin-3-yl]pyridin-2-yl}amino)propyl] acetamide]		1 to 2.5	
COc1cc2ncc(-c3cc(F)nc(NCCC4(O)CCC4)c3)n2cc1S(=O)(=O)C(C)(C)C [Example 187, 1-(2-((4-(6-(tert-butylsulfonyl)-7-methoxyimidazo[1,2-a]pyridin-3-yl)-6-fluoropyridin-2-yl)amino)ethyl)cyclo-butan-1-ol]			IC50 [2, 3]: < 1 nM
CC(C)(C)S(=O)(=O)c1ccc2ncc(-c3cc(F)nc(NCCC4(O)CC4)c3)n2c1 [Example 172, 1-(2-((4-(6-(tert-butylsulfonyl)imidazo [1,2-a]pyridin-3-yl)-6-fluoropyridin-2-yl)amino)ethyl)cyclo-propan-1-ol]		1 to 2.5	

Compound	IC50 ([1]; Homo sapiens, THP1-Dual) [nM]	IC50 [2] [nM]	further results
COc1cc2ncc(-c3cc(F)nc(NCCC(C)O)c3)n2cc1S(=O)(=O)C(C)(C)C (racemic) [Example 190, rac-4-((4-(6-(tert-butylsulfonyl)-7-methoxyimidazo[1,2-a]pyridin-3-yl)-6-fluoropyridin-2-yl)amino)butan-2-ol]		< 1	
COc1cc2ncc(-c3ccnc(F)c3)n2cc1S(=O)(=O)C(C)(C)C [Example 5, 6-(tert-butylsulfonyl)-3-(2-fluoropyridin-4-yl)-7-methoxyimidazo[1,2-a]pyridine]		2.5 to 20	
COc1ccc(-c2cnc3cc(OC)c(S(=O)(=O)C(C)(C)C)cn23)cc1F [Example 63, 6-(tert-butylsulfonyl)-3-(3-fluoro-4-methoxyphenyl)-7-methoxyimidazo[1,2-a]pyridine]		2.5 to 20	
COc1cc2ncc(-c3cc(F)nc(N[C@H]4C[C@@H](OC)C4)c3)n2cc1S(=O)(=O)C(C)(C)C [Example 220, 6-fluoro-4-[7-methoxy-6-(2-methylpropane-2-sulfonyl)imidazo[1,2-a]pyridin-3-yl]-N-[cis-3-methoxycyclobutyl] pyridin-2-amine]		1 to 2.5	
COc1cc2ncc(-c3ccnc(N)c3)n2cc1S(=O)(=O)C(C)(C)C [Example 11, 4-[7-methoxy-6-(2-methylpropane-2-sulfonyl)imidazo[1,2-a]pyridin-3-yl]pyridin-2-amine]	250 to 1000		
COc1cc2ncc(-c3cc(F)nc(N4CC5(CC(O)C5)C4)c3)n2cc1S(=O)(=O)C(C)(C)C [Example 218, 2-{6-fluoro-4-[7-methoxy-6-(2-methylpropane-2-sulfonyl)imidazo[1,2-a]pyridin-3-yl]pyridin-2-yl}-2-azaspiro[3.3]heptan-6-o1]		2.5 to 20	
COc1cc2ncc(-c3cc(Cl)ncc3C)n2cc1S(=O)(=O)C(C)(C)C [Example 159, 6-(tert-Butylsulfonyl)-3-(2-chloro-5-methylpyridin-4-yl)-7-methoxyimidazo[1,2-a]pyridine]			IC50 [2, 3]: > 20 nM
COc1cc2ncc(-c3ccc(N)c(C#N)c3)n2cc1S(=O)(=O)C(C)(C)C [Example 70, 2-amino-5-(6-(tert-butylsulfonyl)-7-methoxyimidazo[1,2-a]pyridin-3-yl)benzonitrile]		2.5 to 20	
CC(C)(C)S(=O)(=O)c1ccc2ncc(-c3cc(F)nc(NCCCO)c3)n2c1 [Example 173, 3-((4-(6-(tert-butylsulfonyl)imidazo [1,2-a]pyridin-3-yl)-6-fluoropyridin-2-yl)amino)propan-1-ol]		2.5 to 20	
COc1cc2ncc(-c3cc(F)nc(N[C@H]4C[C@H](OC)C4)c3)n2cc1S(=O)(=O)C(C)(C)C [Example 219, 6-fluoro-4-[7-methoxy-6-(2-methylpropane-2-sulfonyl)imidazo[1,2-a]pyridin-3-yl]-N-[(trans)-3-methoxycyclobutyl] pyridin-2-amine]		1 to 2.5	
CC(C)(C)S(=O)(=O)c1ccn2ncc(-c3ccc(NCCCO)nc3F)c2c1 [Example 297, 3-((5-(5-(tert-butylsulfonyl)pyrazolo[1,5-a]pyridin-3-yl)-6-fluoropyridin-2-yl)amino)propan-1-ol]			IC50 [2, 3]: > 20 nM
COc1cc2ncc(-c3cc(F)nc(NC4CCC(O)CC4)c3)n2cc1S(=O)(=O)C(C)(C)C (centres unmarked) [Example 204, (1r,4r)-4-((4-(6-(tert-butylsulfonyl)-7-methoxyimidazo[1,2-a]pyridin-3-yl)-6-fluoropyridin-2-yl)amino)cyclohexan-1-ol]	50 to 250		
COc1cc2ncc(-c3cc(F)nc(NC4CC4)c3)n2cc1S(=O)(=O)C(C)(C)C [Example 177, 4-(6-(tert-butylsulfonyl)-7-methoxyimidazo[1,2-a]pyridin-3-yl)-N-cyclopropyl-6-fluoropyridin-2-amine]			IC50 [2, 3]: < 1 nM
COc1ccc(-c2cnc3cc(OC)c(S(=O)(=O)C4CC4)cn23)cc1N [Example 33, 5-(6-(cyclopropylsulfonyl)-7-methoxyimidazo[1,2-a]pyridin-3-yl)-2-methoxyaniline]			IC50 [2, 3]: > 20 nM
COc1cc2ncc(-c3cc(C)nc(F)c3)n2cc1S(=O)(=O)C(C)(C)C [Example 12, 2-fluoro-4-[7-methoxy-6-(2-methylpropane-2-sulfonyl)imidazo[1,2-a]pyridin-3-yl]-6-methylpyridine]		2.5 to 20	
COc1cc2ncc(-c3cc(F)nc(N[C@H]4CC[C@H](O)CC4)c3)n2cc1S(=O)(=O)C(C)(C)C [Example 204, (1r,4r)-4-((4-(6-(tert-butylsulfonyl)-7-methoxyimidazo[1,2-a]pyridin-3-yl)-6-fluoropyridin-2-yl)amino)cyclohexan-1-ol]		1 to 2.5	
COc1cc2ncc(-c3cc(F)nc(N4CC5(C4)CC(O)(C(F)(F)F)C5)c3)n2cc1S(=O)(=O)C(C)(C)C [Example 217, 2-{6-fluoro-4-[7-methoxy-6-(2-methylpropane-2-sulfonyl)imidazo[1,2-a]pyridin-3-yl]pyridin-2-yl}-6-(trifluoromethyl)-2-azaspiro[3.3]heptan-6-ol]		2.5 to 20	
